Laboratory results taken from ChEMBL document CHEMBL4507319 (2021).

Experiments:
[1] = target: GABA-A receptor; anion channel (Rattus norvegicus) (UniProt O09028+P15431+P18506+P18508+P19969+P20236+P23574+P23576+P28471+P28473+P30191+P62813+P63079+P63138+Q91ZM7+Q9ES14); conditions: Compound concentration 10.0 uM
[2] = system: NCI-H520; assay: NCI- H520 cell line Proliferation assay; type: functional, Homo sapiens; conditions: time 3 day
[3] = target: Tyrosine-protein kinase Lck (Homo sapiens) (UniProt P06239); assay: Lck(h) Eurofins kinase panel; conditions: Compound concentration 1.0 uM
[4] = target: cAMP-dependent protein kinase catalytic subunit alpha (Homo sapiens) (UniProt P17612); assay: PKA(h) Eurofins kinase panel; conditions: Compound concentration 1.0 uM
[5] = target: Serine/threonine-protein kinase WNK2 (Homo sapiens) (UniProt Q9Y3S1); assay: WNK2(h) Eurofins kinase panel; conditions: Compound concentration 1.0 uM
[6] = target: T1, cGMP-dependent protein kinase 1 (Homo sapiens) (UniProt Q13976); assay: PKG1alpha (h) Eurofins kinase panel; conditions: Compound concentration 1.0 uM
T1 sequence (whole entry): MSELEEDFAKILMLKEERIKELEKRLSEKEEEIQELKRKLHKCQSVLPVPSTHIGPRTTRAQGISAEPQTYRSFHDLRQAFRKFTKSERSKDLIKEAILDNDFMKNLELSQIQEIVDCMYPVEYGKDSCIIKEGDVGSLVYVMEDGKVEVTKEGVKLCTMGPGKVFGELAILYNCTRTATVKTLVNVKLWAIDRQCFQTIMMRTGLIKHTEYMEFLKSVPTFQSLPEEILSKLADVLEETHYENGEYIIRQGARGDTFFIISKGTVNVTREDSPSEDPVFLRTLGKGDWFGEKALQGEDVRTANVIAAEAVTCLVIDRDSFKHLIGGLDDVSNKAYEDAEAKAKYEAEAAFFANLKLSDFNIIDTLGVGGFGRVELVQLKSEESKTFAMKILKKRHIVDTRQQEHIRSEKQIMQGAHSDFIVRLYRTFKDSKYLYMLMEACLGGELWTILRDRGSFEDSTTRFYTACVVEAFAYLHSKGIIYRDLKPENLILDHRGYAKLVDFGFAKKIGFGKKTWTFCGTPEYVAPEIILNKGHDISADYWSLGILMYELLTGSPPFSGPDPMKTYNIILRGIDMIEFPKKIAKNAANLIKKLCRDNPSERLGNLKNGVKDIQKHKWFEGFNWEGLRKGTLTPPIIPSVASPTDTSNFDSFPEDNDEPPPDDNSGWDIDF

[7] = target: T2, Inhibitor of nuclear factor kappa-B kinase subunit beta (Homo sapiens) (UniProt O14920); assay: IKKbeta(h) Eurofins kinase panel; conditions: Compound concentration 1.0 uM
T2 sequence (whole entry): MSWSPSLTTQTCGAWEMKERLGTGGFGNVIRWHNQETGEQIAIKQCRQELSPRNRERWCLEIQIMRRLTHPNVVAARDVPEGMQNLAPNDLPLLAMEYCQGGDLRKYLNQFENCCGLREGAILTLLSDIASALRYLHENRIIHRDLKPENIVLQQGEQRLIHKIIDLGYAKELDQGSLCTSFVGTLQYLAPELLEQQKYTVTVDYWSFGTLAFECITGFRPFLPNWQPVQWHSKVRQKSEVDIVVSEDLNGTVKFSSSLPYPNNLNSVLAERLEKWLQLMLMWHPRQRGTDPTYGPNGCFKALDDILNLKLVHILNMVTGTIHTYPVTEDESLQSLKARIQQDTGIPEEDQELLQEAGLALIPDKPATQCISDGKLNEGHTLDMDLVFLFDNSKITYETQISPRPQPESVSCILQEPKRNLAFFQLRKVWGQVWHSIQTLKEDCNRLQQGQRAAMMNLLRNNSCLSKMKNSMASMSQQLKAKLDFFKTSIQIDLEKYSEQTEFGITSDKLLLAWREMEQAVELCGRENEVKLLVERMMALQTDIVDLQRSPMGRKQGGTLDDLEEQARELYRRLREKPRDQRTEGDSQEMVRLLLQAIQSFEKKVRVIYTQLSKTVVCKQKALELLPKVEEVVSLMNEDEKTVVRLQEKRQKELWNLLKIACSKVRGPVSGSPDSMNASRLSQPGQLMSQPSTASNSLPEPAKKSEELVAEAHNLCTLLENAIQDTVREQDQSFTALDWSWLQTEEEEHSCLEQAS

[8] = target: Calcium/calmodulin-dependent protein kinase type 1 (Homo sapiens) (UniProt Q14012); assay: CaMKI(h) Eurofins kinase panel; conditions: Compound concentration 1.0 uM
[9] = target: T3, Mitogen-activated protein kinase 13 (Homo sapiens) (UniProt O15264); assay: SAPK4(h) Eurofins kinase panel; conditions: Compound concentration 1.0 uM
T3 sequence (whole entry): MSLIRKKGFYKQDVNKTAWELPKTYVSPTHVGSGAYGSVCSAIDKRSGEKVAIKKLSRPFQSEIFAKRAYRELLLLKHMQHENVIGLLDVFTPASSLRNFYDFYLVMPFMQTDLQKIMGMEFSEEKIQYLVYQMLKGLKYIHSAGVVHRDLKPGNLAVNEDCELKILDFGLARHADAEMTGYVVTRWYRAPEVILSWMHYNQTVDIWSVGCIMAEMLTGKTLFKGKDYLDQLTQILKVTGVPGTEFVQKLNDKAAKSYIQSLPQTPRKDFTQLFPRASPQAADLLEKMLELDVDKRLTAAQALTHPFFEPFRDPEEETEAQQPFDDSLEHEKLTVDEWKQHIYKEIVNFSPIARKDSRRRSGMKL

[10] = target: Tyrosine-protein kinase Fgr (Homo sapiens) (UniProt P09769); assay: Fgr(h) Eurofins kinase panel; conditions: Compound concentration 1.0 uM
[11] = target: Testis-specific serine/threonine-protein kinase 2 (Homo sapiens) (UniProt Q96PF2); assay: TSSK2(h) Eurofins kinase panel; conditions: Compound concentration 1.0 uM
[12] = target: T4, Serine/threonine-protein kinase NLK (Homo sapiens) (UniProt Q9UBE8); assay: NLK(h) Eurofins kinase panel; conditions: Compound concentration 1.0 uM
T4 sequence (whole entry): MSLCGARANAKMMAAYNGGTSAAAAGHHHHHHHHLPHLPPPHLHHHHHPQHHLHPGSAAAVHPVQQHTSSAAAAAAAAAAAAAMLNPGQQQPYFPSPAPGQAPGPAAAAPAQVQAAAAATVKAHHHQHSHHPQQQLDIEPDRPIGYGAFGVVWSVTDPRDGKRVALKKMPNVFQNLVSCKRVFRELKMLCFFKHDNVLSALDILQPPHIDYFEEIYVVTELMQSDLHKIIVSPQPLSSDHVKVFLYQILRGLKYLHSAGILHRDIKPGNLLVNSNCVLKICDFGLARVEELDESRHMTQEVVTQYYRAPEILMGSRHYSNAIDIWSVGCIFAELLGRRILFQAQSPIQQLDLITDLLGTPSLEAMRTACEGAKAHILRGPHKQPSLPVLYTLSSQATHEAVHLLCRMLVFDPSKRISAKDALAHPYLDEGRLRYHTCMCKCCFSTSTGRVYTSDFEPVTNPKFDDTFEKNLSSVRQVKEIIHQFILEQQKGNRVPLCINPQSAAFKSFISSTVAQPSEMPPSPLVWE

[13] = target: Dual specificity tyrosine-phosphorylation-regulated kinase 1B (Homo sapiens) (UniProt Q9Y463); assay: DYRK1B(h) Eurofins kinase panel; conditions: Compound concentration 1.0 uM
[14] = target: Protein kinase C alpha type (Homo sapiens) (UniProt P17252); assay: PKCalpha (h) Eurofins kinase panel; conditions: Compound concentration 1.0 uM

Sequence of Dual specificity tyrosine-phosphorylation-regulated kinase 1B (Homo sapiens) (Q9Y463 whole entry, looked up): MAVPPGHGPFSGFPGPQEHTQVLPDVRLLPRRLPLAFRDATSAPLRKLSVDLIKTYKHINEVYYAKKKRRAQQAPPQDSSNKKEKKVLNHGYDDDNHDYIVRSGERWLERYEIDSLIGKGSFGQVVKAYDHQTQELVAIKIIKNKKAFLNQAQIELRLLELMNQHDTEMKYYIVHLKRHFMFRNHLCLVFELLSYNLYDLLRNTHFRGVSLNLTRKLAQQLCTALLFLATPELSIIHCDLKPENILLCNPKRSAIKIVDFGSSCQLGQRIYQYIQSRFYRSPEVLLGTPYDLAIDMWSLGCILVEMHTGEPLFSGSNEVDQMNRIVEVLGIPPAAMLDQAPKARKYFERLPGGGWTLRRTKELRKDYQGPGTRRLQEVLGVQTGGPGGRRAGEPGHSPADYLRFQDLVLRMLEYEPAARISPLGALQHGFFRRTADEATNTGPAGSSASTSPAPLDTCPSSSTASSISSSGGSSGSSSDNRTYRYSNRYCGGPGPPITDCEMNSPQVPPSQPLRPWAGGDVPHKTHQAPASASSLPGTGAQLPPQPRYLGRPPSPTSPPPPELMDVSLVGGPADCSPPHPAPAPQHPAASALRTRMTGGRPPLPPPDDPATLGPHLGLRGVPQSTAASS
Sequence of Tyrosine-protein kinase Fgr (Homo sapiens) (P09769 2-529 limits assumed): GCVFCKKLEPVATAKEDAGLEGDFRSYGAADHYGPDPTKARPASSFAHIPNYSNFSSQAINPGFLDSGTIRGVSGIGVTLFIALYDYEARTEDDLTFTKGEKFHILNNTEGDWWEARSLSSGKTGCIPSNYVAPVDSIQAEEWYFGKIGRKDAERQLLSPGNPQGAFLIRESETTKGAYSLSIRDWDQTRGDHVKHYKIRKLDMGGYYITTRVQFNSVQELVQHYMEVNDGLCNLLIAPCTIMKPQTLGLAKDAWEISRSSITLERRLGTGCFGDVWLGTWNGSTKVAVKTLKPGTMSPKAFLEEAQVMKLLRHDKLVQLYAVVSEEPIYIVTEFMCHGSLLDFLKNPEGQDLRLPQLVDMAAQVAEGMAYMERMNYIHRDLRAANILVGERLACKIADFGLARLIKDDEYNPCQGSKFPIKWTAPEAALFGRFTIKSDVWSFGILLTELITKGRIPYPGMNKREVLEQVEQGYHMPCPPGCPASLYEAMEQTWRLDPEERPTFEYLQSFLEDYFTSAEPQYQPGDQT
Sequence of Testis-specific serine/threonine-protein kinase 2 (Homo sapiens) (Q96PF2 whole entry): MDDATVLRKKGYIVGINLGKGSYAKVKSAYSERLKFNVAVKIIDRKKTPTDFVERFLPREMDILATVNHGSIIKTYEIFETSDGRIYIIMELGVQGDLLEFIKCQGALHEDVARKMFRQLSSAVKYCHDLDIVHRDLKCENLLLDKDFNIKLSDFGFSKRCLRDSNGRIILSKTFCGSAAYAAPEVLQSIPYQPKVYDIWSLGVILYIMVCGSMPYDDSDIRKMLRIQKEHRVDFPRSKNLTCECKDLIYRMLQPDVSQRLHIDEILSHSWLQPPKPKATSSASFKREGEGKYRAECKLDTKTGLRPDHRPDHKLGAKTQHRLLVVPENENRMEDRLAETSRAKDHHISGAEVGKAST
Sequence of Calcium/calmodulin-dependent protein kinase type 1 (Homo sapiens) (Q14012 whole entry, looked up): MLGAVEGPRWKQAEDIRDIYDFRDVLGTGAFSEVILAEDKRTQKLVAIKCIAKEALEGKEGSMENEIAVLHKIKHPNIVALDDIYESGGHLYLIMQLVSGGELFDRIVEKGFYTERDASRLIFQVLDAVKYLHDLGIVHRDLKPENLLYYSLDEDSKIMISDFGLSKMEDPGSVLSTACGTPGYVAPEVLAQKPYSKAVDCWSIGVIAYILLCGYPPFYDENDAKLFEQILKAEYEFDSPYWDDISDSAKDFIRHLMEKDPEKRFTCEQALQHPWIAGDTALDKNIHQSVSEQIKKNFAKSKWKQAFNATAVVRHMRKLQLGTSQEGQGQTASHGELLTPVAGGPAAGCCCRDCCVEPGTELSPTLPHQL
Sequence of Tyrosine-protein kinase Lck (Homo sapiens) (P06239 2-509 limits assumed): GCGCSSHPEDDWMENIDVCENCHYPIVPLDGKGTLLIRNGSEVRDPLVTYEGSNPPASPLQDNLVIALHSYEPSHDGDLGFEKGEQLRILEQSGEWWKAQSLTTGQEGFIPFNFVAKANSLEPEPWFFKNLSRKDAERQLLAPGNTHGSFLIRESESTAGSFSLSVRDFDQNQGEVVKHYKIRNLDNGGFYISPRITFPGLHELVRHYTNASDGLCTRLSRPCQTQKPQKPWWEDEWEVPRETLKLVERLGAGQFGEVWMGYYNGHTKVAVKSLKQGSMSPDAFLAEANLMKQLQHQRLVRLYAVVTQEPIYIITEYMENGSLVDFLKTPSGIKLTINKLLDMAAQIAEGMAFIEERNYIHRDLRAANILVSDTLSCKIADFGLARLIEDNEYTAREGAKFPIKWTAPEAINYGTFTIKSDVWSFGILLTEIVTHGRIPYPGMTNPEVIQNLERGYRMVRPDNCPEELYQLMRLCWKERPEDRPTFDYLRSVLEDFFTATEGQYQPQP

SMILES	inhibition [1] [%]	Cell Proliferation IC50 [2] [µM]	% residual kinase activity [3] [%]	% residual kinase activity [4] [%]	% residual kinase activity [5] [%]	% residual kinase activity [6] [%]	% residual kinase activity [7] [%]	% residual kinase activity [8] [%]	% residual kinase activity [9] [%]	% residual kinase activity [10] [%]	% residual kinase activity [11] [%]	% residual kinase activity [12] [%]	% residual kinase activity [13] [%]	% residual kinase activity [14] [%]
CC1=C(C#N)C(c2ccc3c(c2)c(NC(=O)c2ccccc2C)nn3C)C(C#N)=C(C)N1 [BAY-974]	-1.23													
CCc1ccccc1C(=O)Nc1n[nH]c2c(C)c(F)c(C3C(C#N)=C(C)N(C)C(C)=C3C#N)cc12 [BAY-3827]		24.1	93	103	87	68	106	93	111	93	105	91	99	44
